These results are taken from PMC3646166, “Comparison of Aqueous and 1-Octanol Solubility as well as Liquid–Liquid Distribution of Acyclovir Derivatives and Their Complexes with Hydroxypropyl-β-Cyclodextrin” (Journal of Solution Chemistry, 2013).

Series [1] can be described thus: Solubility in buffered cyclodextrin solutions (excess method of Higuchi and Connors). The arrangement: Stability constant K s of HP-β-CD complex: unit not given here. The series is classed as physicochemical. The method, then: Solubilities of the studied compounds was ensured according to the excess method of Higuchi and Connors. […] An excess amount of compounds 4-9 and 11-12 was added to 1.5 mL of aqueous phosphate buffer (concentration of buffer was equal 0.067 mol·dm^-3) solutions, (pH = 5.5 or 7.0) containing various concentration of HP-β-CD. The cyclodextrin concentration changed in the range of 10^-3 to 2 × 10^-2 mol·dm^-3. The suspensions were shaken in screw-capped plastic vials in a water bath thermostat with the volume of 60 dm^3 (home made apparatus by IChF PAN) at 25 and 37 °C. After 7 days equilibrium was reached and then the suspensions were centrifuged and the absorbance of the studied compounds was measured by UV-Vis spectrophotometry using a Shimadzu UV 2401 PC Spectrometer equipped with a thermostatically controlled cell compartment. During the measurement of absorbance, a buffered-solution of HP-β-CD, of the same concentration as in the studied solution, was always put as the reference. The average values of at least three independent determinations of the absorbance were used for calculation of the concentrations of the particular acyclovir derivatives. […] The main reason for the low solubility of tricyclic acyclovir derivatives with aromatic groups in water is the high hydrophobicity of these substituents. Use of cyclodextrins, which can include aromatic groups into their cavity, may enhance the aqueous solubility of such compounds. For this purpose we used several cyclodextrins and hydroxypropyl-β-cyclodextrin was chosen as being more efficient for complexating the tricyclic acyclovir derivatives. The investigations were performed, for chosen compounds, in various cyclodextrin HP-β-CD, buffered solutions (pH = 5.5 and 7.0) at 25 and 37 °C. […] Values of the correlation parameters a and b for tricyclic acyclovir derivatives complexed by cyclodextrin are presented in Table 3. […] The stability constants of the inclusion complexes between HP-β-CD and acyclovir derivatives have been calculated according to the Higuchi-Connors method using:3 K=b/C0(1-b) where C 0 is the solubility of the sample in solutions without cyclodextrin, obtained by determination of saturated solution concentration of acyclovir derivative solutions. […] These two values can differ, but in our study are very close to each other.

Series [2] in a line: Solubility in water or 1-octanol (saturated solutions, UV-Vis). Conditions: for solubility: thermodynamic from solid, water. The series is classed as physicochemical. The method, then: The sample of substance examined (10 mg or 80 mg for 6-Me-TACV) was placed in a glass ampoule and double-distilled, deionized water (Millipore, Elix 5 purifier), or pure anhydrous 1-octanol (Sigma 99 %) was added. To attain thermodynamic equilibrium, the solute and the solvent were mixed continuously for a minimum of 4 days at a speed of 25 rpm. After the experiment was completed, the sample was centrifuged at 40,000 rpm for 40 min at 25 ± 0.1 °C, the supernatant liquid was collected, diluted, and its concentration determined with a UV–Vis (Varian Carry IE) spectrophotometer. The experiments were repeated at least three times for each solubility.

Series [3] in a line: Extraction experiments, 1-octanol-water partition coefficient. Format: physicochemical. Conditions: 25 °C, read-out: Partition coefficient 1-octanol–water, P oc/w (converted). The method, then:
The equipment described above was also used for the determination of the 1-octanol-water partition coefficients. […] The partition coefficient was evaluated as:1 Poc/w=Coc/Cw where C oc and C w are the molar concentrations of the solute in the 1-octanol and water phases, respectively. The correctness of the P oc/w value of each compound was verified by checking the mass balance of the starting amount of the substance and the total amount of the substance partitioned between the two phases.

Details of series [4]: method as in earlier work. Conditions: human body ref 1; cited from earlier work.
Where [5] appears, read: buffered HP-β-CD solutions, pH = 5.5, 25 °C.
[6] abbreviates: buffered HP-β-CD solutions, pH = 5.5, 37 °C.
Setting [7] is: buffered HP-β-CD solutions, pH = 7.0, 25 °C.
Where [8] appears, read: buffered HP-β-CD solutions, pH = 7.0, 37 °C.
The mark [9] stands for this setting: 25 °C (Table 1), read-out: Solubility in water, C w.
Setting [10] is: water saturated with 1-octanol, 25 °C, read-out: Solubility in water saturated with 1-octanol, C woc.
The mark [11] stands for this setting: 35 °C, read-out: Aqueous solubility, C w.
Where [12] appears, read: 45 °C, read-out: Aqueous solubility, C w.

Each structure is given as a SMILES string. In brackets after ≈: the same amount, converted by molar mass. Where two headings read alike, the source gives them in different places.

As a reminder, the solubility is how much of the substance goes into solution per volume.

In the case of `O=c1c2ncn(COCCO)c2nc2[nH]ccn12` [Compound 4, 3,9-dihydro-3-[(2-hydroxyethoxy)methyl]-9-oxo-5H-imidazol[1,2-a]purine], the “Correlation parameter a (Eq. 2, Cs = a + b·CCD)” value in series [1] (setting [5]) is reported as 2.64 × 10^−3; in series [1] (setting [6]) it was 5.15 × 10^−3; in series [1] (setting [7]) it was 2.48 × 10^−3; in series [1] (setting [8]) it was 4.79 × 10^−3. Besides, the “Correlation parameter b (Eq. 2, Cs = a + b·CCD)” value (“Correlation parameter b” for short) is reported as 1.98 × 10^−2 in series [1] (setting [5]), 2.72 × 10^−2 in series [1] (setting [6]), 2.05 × 10^−2 in series [1] (setting [7]) and 2.56 × 10^−2 in series [1] (setting [8]). For the same compound, the “Stability constant K s of HP-β-CD complex” value (from here on “Stability constant K s”) in series [1] (pH = 5.5, 25 °C) is 8.0 (±1) dm·mol^−1; in series [1] (pH = 5.5, 37 °C), 6.0 (±1) dm·mol^−1; in series [1] (pH = 7, 25 °C) it was 8.0 (±1) dm·mol^−1; in series [1] (pH = 7, 37 °C), 6.0 (±1) dm·mol^−1. In addition, in series [2] (25 °C), the “Solubility ratio in 1-octanol and water, C oc/C w” value (“Solubility ratio … C oc/C w” for short) is 0.046. Moreover, in series [2] (25 °C), the “Solubility ratio in 1-octanol saturated with water and water saturated with 1-octanol, C ocw/C woc” value (shortened to “Solubility ratio in 1-octanol saturated”) amounted to 0.157. Also, the solubility in series [2] (setting [9]) amounted to 3070 µM (≈ 765 µg/mL); in series [2] (setting [10]), 2720 µM (≈ 678 µg/mL); in series [2] (setting [11]), 5910 µM (≈ 1470 µg/mL); in series [2] (setting [12]) it was 6750 µM (≈ 1680 µg/mL). The logP at 2 days in series [3] is -0.86.
As for `Cc1cn2c(=O)c3nc(Br)n(COCCO)c3nc2[nH]1` [Compound 6], the “Correlation parameter a (Eq. 2, Cs = a + b·CCD)” value in series [1] (setting [5]) was 1.18 × 10^−3; in series [1] (setting [6]), 2.35 × 10^−3; in series [1] (setting [7]), 1.03 × 10^−3; in series [1] (setting [8]), 2.01 × 10^−3. Further, the “Correlation parameter b” value in series [1] (setting [5]) was 2.66 × 10^−2; in series [1] (setting [6]), 5.94 × 10^−2; in series [1] (setting [7]), 2.57 × 10^−2; in series [1] (setting [8]), 3.23 × 10^−2. In addition, the “Stability constant K s” value in series [1] (pH = 5.5, 25 °C) was 27 (±2) dm·mol^−1; in series [1] (pH = 5.5, 37 °C), 26 (±2) dm·mol^−1; in series [1] (pH = 7, 25 °C), 26 (±2) dm·mol^−1; in series [1] (pH = 7, 37 °C), 17 (±1) dm·mol^−1. In addition, the “Solubility ratio … C oc/C w” value in series [2] (25 °C) stood at 0.108. In addition, the “Solubility ratio in 1-octanol saturated” value in series [2] (25 °C) is 0.816. In addition, the solubility in series [2] (setting [9]) is 2110 µM (≈ 722 µg/mL); in series [2] (setting [10]) it was 1050 µM (≈ 360 µg/mL); in series [2] (setting [11]), 2360 µM (≈ 807 µg/mL); in series [2] (setting [12]) it was 2590 µM (≈ 886 µg/mL). Further, in series [3], the logP at 2 days is -0.108.
`CC(C)(C)c1cn2c(=O)c3ncn(COCCO)c3nc2[nH]1` [Compound 7]: the “Type of solubility diagram (solubility versus cyclodextrin concentration)” value in series [1] (buffered HP-β-CD solutions) is “An type of solubility diagram”. Also, the “Solubility ratio … C oc/C w” value in series [2] (25 °C) was found to be 5.16. For the same compound, the “Solubility ratio in 1-octanol saturated” value in series [2] (25 °C) turned out to be 2.62. In addition, the solubility was 3080 µM (≈ 940 µg/mL) in series [2] (setting [9]), 3780 µM (≈ 1150 µg/mL) in series [2] (setting [10]), 20400 µM (≈ 6230 µg/mL) in series [2] (setting [11]) and 31900 µM (≈ 9740 µg/mL) in series [2] (setting [12]). Moreover, the logP at 2 days in series [3] is 0.616.
Take `O=c1c2ncn(COCCO)c2nc2[nH]c(-c3ccccc3)cn12` [Compound 8]: the “Correlation parameter a (Eq. 2, Cs = a + b·CCD)” value in series [1] (setting [5]) is recorded as 1.86 × 10^−4; in series [1] (setting [6]), 3.27 × 10^−4; in series [1] (setting [7]), 2.50 × 10^−4; in series [1] (setting [8]) it was 3.36 × 10^−4. Also, the “Correlation parameter b” value is 2.22 × 10^−2 in series [1] (setting [5]), 3.57 × 10^−2 in series [1] (setting [6]), 2.60 × 10^−2 in series [1] (setting [7]) and 3.60 × 10^−2 in series [1] (setting [8]). In addition, the “Stability constant K s” value is reported as 122 (±2) dm·mol^−1 in series [1] (pH = 5.5, 25 °C); 113 (±10) in series [1] (pH = 5.5, 37 °C); 107 (±8) in series [1] (pH = 7, 25 °C); 105 (±6) dm·mol^−1 in series [1] (pH = 7, 37 °C). The “Solubility ratio … C oc/C w” value in series [2] (25 °C) came to 7.48. Also, the “Solubility ratio in 1-octanol saturated” value in series [2] (25 °C) turned out to be 4.76. For the same compound, the solubility in series [2] (setting [9]) was 238 µM (≈ 77.4 µg/mL); in series [2] (setting [10]), 334 µM (≈ 109 µg/mL); in series [2] (setting [11]) it was 517 µM (≈ 168 µg/mL); in series [2] (setting [12]), 728 µM (≈ 237 µg/mL). Moreover, the logP at 2 days in series [3] was 0.545.
On to `O=c1c2ncn(COCCO)c2nc2[nH]c(-c3ccc(-c4ccccc4)cc3)cn12` [Compound 9], for which the “Correlation parameter a (Eq. 2, Cs = a + b·CCD)” value in series [1] (setting [5]) is 2.18 × 10^−4; in series [1] (setting [6]), 5.03 × 10^−4; in series [1] (setting [7]), 2.65 × 10^−4; in series [1] (setting [8]), 5.95 × 10^−4. The results for the “Correlation parameter b” value in series [1] (setting [5]), in series [1] (setting [6]) and in series [1] (setting [7]) were 2.12 × 10^−2, 2.98 × 10^−2 and 2.84 × 10^−2, respectively. Further, the “Stability constant K s” value is 100 (±8) in series [1] (pH = 5.5, 25 °C); 61 (±5) in series [1] (pH = 5.5, 37 °C); 110 (±6) dm·mol^−1 in series [1] (pH = 7, 25 °C); 68 (±4) in series [1] (pH = 7, 37 °C). For the same compound, the “Solubility ratio … C oc/C w” value in series [2] (25 °C) was determined as 8.90. The “Solubility ratio in 1-octanol saturated” value in series [2] (25 °C) is given as 3.10. Moreover, the solubility was 229 µM (≈ 91.9 µg/mL) in series [2] (setting [9]), 583 µM (≈ 234 µg/mL) in series [2] (setting [10]), 554 µM (≈ 222 µg/mL) in series [2] (setting [11]) and 658 µM (≈ 264 µg/mL) in series [2] (setting [12]). Besides, the logP at 2 days in series [3] was 0.491.
`O=c1c2ncn(COCCO)c2nc2[nH]c(-c3ccc4ccccc4c3)cn12` [Compound 12]: the “Correlation parameter a (Eq. 2, Cs = a + b·CCD)” value was 2.99 × 10^−5 in series [1] (setting [5]), 3.37 × 10^−5 in series [1] (setting [6]), 3.05 × 10^−5 in series [1] (setting [7]) and 4.29 × 10^−5 in series [1] (setting [8]). Further, the “Correlation parameter b” value was 0.88 × 10^−2 in series [1] (setting [5]), 0.93 × 10^−2 in series [1] (setting [6]), 0.94 × 10^−2 in series [1] (setting [7]) and 1.29 × 10^−2 in series [1] (setting [8]). For the same compound, the “Stability constant K s” value in series [1] (pH = 5.5, 25 °C) is listed as 297 (±7); in series [1] (pH = 5.5, 37 °C), 279 (±9); in series [1] (pH = 7, 25 °C), 311 (±9); in series [1] (pH = 7, 37 °C), 305 (±9). Further, in series [2] (25 °C), the “Solubility ratio … C oc/C w” value amounted to 4.37. For the same compound, in series [2] (25 °C), the “Solubility ratio in 1-octanol saturated” value amounted to 3.58. Besides, the solubility in series [2] (setting [9]) is 166 µM (≈ 62.3 µg/mL); in series [2] (setting [10]), 191 µM (≈ 71.7 µg/mL); in series [2] (setting [11]), 256 µM (≈ 96.1 µg/mL); in series [2] (setting [12]), 265 µM (≈ 99.5 µg/mL). Also, in series [3], the logP at 2 days is 0.549.
Take `CC(C)[C@H](N)C(=O)OCCOCn1cnc2c(=O)[nH]c(N)nc21` [valacyclovir]: in series [4], the “Absorption relative to application of acyclovir” value is “four times higher”.
